From publication PMC10497682, “Synthesis and cytotoxicity evaluation of novel 1,8-acridinedione derivatives bearing phthalimide moiety as potential antitumor agents” (Scientific Reports, 2023)
In brackets after ≈: the same amount, converted by molar mass.

Legend:
Type in all cases: cell-based
[1] = tested on: breast cancer cells (MDA-MB-231); experiment: MTT cytotoxicity assay, MDA-MB-231
Protocol: (§1) The cell lines were obtained from American Type Culture Collection (ATCC). With the usage of the Thiazolyl Blue Tetrazolium Bromide (MTT) method, various concentrations of the compounds (8c, 8f, 8h, 8i, and 8L) were evaluated for their cytotoxicity against the HSF, H460, A431, A549, and MDA-MB-231 cell lines. In brief HSF, H460, A431, A549 and MDA-MB-231 cell lines cells (10 × 10^3) were cultured in 96 well plate for overnight at 37 °C, 5% CO2 and 88% humidity. The total volume of used DMEM supplemented medium and the synthesized compounds supernatant was 200 µL with final concentrations of 25, 50, 100, 150 and 200 µg/ml. The plate was incubated at 37 °C, 5% CO2 for 48 h. After incubation, debris and dead cells were removed by washing three times with fresh medium. […] 200 µL dimethyl sulfoxide (DMSO) was added to each well and shook again for 5 min at 150 rpm, and then the viability of the cells was calculated by measuring the optical density at 630 nm subtracted from optical density at 570 nm. The relative cell viability (%) was determined as the given formula: Therelativecellviability%=ODS/ODC×100 whereas ODS is the mean optical density of sample, ODC is the mean OD of control group. […] Tumor-selectivity index (TS value) was determined by dividing the mean IC50 against normal cells by the mean IC50 against tumor cells. […]

MDA-MB-231 cells = experiment: Morphological modifications under phase-contrast microscope, MDA-MB-231; settings: IC50 dose, 48 h, vs untreated control
Protocol: (§2) The present study aimed to investigate the in vitro effects of five synthetic compounds (8c, 8f, 8h, 8i, and 8L) on the morphological modifications of four different cancer cell lines (A431, A549, H460, and MDA-MB-231) compared with untreated control cells (Fig. 5). The cells were treated with the compounds at IC50 doses for 48 h, and the morphological changes were observed under a phase-contrast microscope.
(§3) All cells were treated with compounds (8c, 8f, 8h, 8i and 8L) at IC50 doses for 48 h as compared to untreated control cells.
(§4) The cell lines were obtained from American Type Culture Collection (ATCC). With the usage of the Thiazolyl Blue Tetrazolium Bromide (MTT) method, various concentrations of the compounds (8c, 8f, 8h, 8i, and 8L) were evaluated for their cytotoxicity against the HSF, H460, A431, A549, and MDA-MB-231 cell lines. […] 200 µL dimethyl sulfoxide (DMSO) was added to each well and shook again for 5 min at 150 rpm, and then the viability of the cells was calculated by measuring the optical density at 630 nm subtracted from optical density at 570 nm. The relative cell viability (%) was determined as the given formula: Therelativecellviability%=ODS/ODC×100 whereas ODS is the mean optical density of sample, ODC is the mean OD of control group. […]

H460 cells = experiment: Morphological modifications under phase-contrast microscope, H460; settings: IC50 dose, 48 h, vs untreated control
Protocol: as §2, §3, §4

A549 cells = experiment: Morphological modifications under phase-contrast microscope, A549; settings: IC50 dose, 48 h, vs untreated control
Protocol: as §2, §3, §4

skin cancer cells (A431) = experiment: MTT cytotoxicity assay, A431; settings: for selectivity index (SI): mean IC50 against normal cells (HSF) divided by IC50 against A431
Protocol: (§5) The cell lines were obtained from American Type Culture Collection (ATCC). With the usage of the Thiazolyl Blue Tetrazolium Bromide (MTT) method, various concentrations of the compounds (8c, 8f, 8h, 8i, and 8L) were evaluated for their cytotoxicity against the HSF, H460, A431, A549, and MDA-MB-231 cell lines. In brief HSF, H460, A431, A549 and MDA-MB-231 cell lines cells (10 × 10^3) were cultured in 96 well plate for overnight at 37 °C, 5% CO2 and 88% humidity. The total volume of used DMEM supplemented medium and the synthesized compounds supernatant was 200 µL with final concentrations of 25, 50, 100, 150 and 200 µg/ml. The plate was incubated at 37 °C, 5% CO2 for 48 h. After incubation, debris and dead cells were removed by washing three times with fresh medium. […] of MTT solution (5 mg/ml of MTT in PBS buffer) was added to each well and shook for 5 min at 150 rpm to thoroughly mix the MTT into the media. The cells were incubated at 37 °C and 5% CO2 for 3–5 h to metabolize MTT by viable cells. 200 µL dimethyl sulfoxide (DMSO) was added to each well and shook again for 5 min at 150 rpm, and then the viability of the cells was calculated by measuring the optical density at 630 nm subtracted from optical density at 570 nm. The relative cell viability (%) was determined as the given formula: Therelativecellviability%=ODS/ODC×100 whereas ODS is the mean optical density of sample, ODC is the mean OD of control group. […] Tumor-selectivity index (TS value) was determined by dividing the mean IC50 against normal cells by the mean IC50 against tumor cells. Thus obtained TS values seem to reflect the in vivo antitumor activity even though these cells were different types of cells (epithelial oral squamous cell carcinoma cell lines versus mesenchymal normal oral cells).

p53 = experiment: qRT-PCR mRNA expression of p53 in A431 cells; settings: IC50 concentration, 2 days, fold vs untreated control
Protocol: (§6) In this study, the impact of potent antitumor compounds (8c, 8f, 8h, 8i, and 8L) on the expression levels of four tumor regulating genes, namely Topoisomerase II beta (TOP2B), mitogen-activated protein kinase (MAP K) (p38), tumor protein interacted with the mouse double minute 2 homolog (p53), and Epidermal growth factor receptor (EGFR), was investigated in skin cancer cells (A431). Evaluation the relative changes in mRNA expression levels of four key genes by performing quantitative real-time PCR (qRT-PCR) before and after treatment for 2 days with IC50 concentrations of compounds (8c, 8f, 8h, 8i, and 8L). Total RNA was extracted from the cells using the Gene JET RNA Purification Kit (Thermo Scientific, USA), followed by cDNA synthesis using the cDNA Synthesis Kit (Thermo Scientific, USA) protocol. SYBR green kit and specific primers (Forward/Reverse) were used for qRT-PCR: 5′-[…]-3’/5’-[…]-3′ for p38, 5′-[…]-3′/5′-[…]-3′ for p53, 5’-[…]-3’/5’-[…]-3’ for TOP2B, and 5’-[…]-3’/5’-[…]-3’ for EGFR. The expression levels of the tested genes were determined by using the 2^−ΔΔCT equation to assess any changes in upregulation and/or downregulation of gene expression.

TOP2B = experiment: qRT-PCR mRNA expression of TOP2B in A431 cells; settings: IC50 concentration, 2 days, fold vs untreated control
Protocol: as §6

p38 = experiment: qRT-PCR mRNA expression of p38 in A431 cells; settings: IC50 concentration, 2 days, fold vs untreated control
Protocol: as §6

lung cancer cells (H460) = experiment: MTT cytotoxicity assay, H460; settings: for selectivity index (SI): mean IC50 against normal cells (HSF) divided by IC50 against H460
Protocol: as §5

EGFR = experiment: qRT-PCR mRNA expression of EGFR in A431 cells; settings: IC50 concentration, 2 days, fold vs untreated control
Protocol: as §6

A431 cells = experiment: Morphological modifications under phase-contrast microscope, A431; settings: IC50 dose, 48 h, vs untreated control
Protocol: as §2, §3, §4

lung cancer cells (A549) = experiment: MTT cytotoxicity assay, A549
Protocol: as §1

What does the source list for CC1(C)CC(=O)C2=C(C1)N(CCOC(=O)CN1C(=O)c3ccccc3C1=O)C1=C(C(=O)CC(C)(C)C1)C2c1ccc2c(c1)OCO2 [Compound 8L, 2-(9-(benzo[d][1,3]dioxol-5-yl)-3,3,6,6-tetramethyl-1,8-dioxo-2,3,4,5,6,7,8,9-octahydroacridin-10(1H)-yl)ethyl 2-(1,3-dioxoisoindolin-2-yl)acetate]?
IC50 ([1]; Homo sapiens, MDA-MB-231 cells, MTT, 48 h, mean ± SEM): 27.7 ± 2.7 µg/mL (≈ 44.3 µM); selectivity index (SI) ([1]; mean IC50 against normal cells (HSF) divided by IC50 against MDA-MB-231): 4.4; morphological modifications (MDA-MB-231 cells): significant cell damage and alterations in cell morphology

Which morphological modifications (H460 cells) does the source give for CC1(C)CC(=O)C2=C(C1)N(CCOC(=O)CN1C(=O)c3ccccc3C1=O)C1=C(C(=O)CC(C)(C)C1)C2c1ccc(F)cc1 [Compound 8c, 2-(9-(4-fluorophenyl)-3,3,6,6-tetramethyl-1,8-dioxo-2,3,4,5,6,7,8,9-octahydroacridin-10(1H)-yl) ethyl 2-(1,3-dioxoisoindolin-2-yl) acetate] here?
The morphological modifications was “noticeable cell damage and alterations in the morphology”.

And the morphological modifications (A549 cells)?
The morphological modifications was “significant cell damage and alterations in the morphology”.

Which results are given for CC1(C)CC(=O)C2=C(C1)N(CCOC(=O)CN1C(=O)c3ccccc3C1=O)C1=C(C(=O)CC(C)(C)C1)C2c1ccc(-c2ccccc2)cc1 [Compound 8f, 2-(9-([1,1'-biphenyl]-4-yl)-3,3,6,6-tetramethyl-1,8-dioxo-2,3,4,5,6,7,8,9-octahydroacridin-10(1H)-yl) ethyl 2-(1,3-dioxoisoindolin-2-yl) acetate]?
IC50 (skin cancer cells (A431); Homo sapiens, A-431, A431 cells, MTT, 48 h, mean ± SEM): 11.9 ± 3.3 µg/mL; selectivity index (SI) (skin cancer cells (A431)): 15.9; relative change in mRNA expression level of p53 (p53): highest relative change; relative change in mRNA expression level of TOP2B (TOP2B): lowest relative change; relative change in mRNA expression level of p38 (p38): highest relative change; IC50 (lung cancer cells (H460); Homo sapiens, NCI-H460, H460 cells, MTT, 48 h, mean ± SEM): 24.6 ± 3.4 µg/mL; selectivity index (SI) (lung cancer cells (H460)): 7.7; morphological modifications (MDA-MB-231 cells): significant cell damage and alterations in cell morphology; morphological modifications (H460 cells): noticeable cell damage and alterations in the morphology; relative change in mRNA expression level of EGFR (EGFR): lowest relative change; morphological modifications (A431 cells): significant cell damage and alteration in the morphology; morphological modifications (A549 cells): significant cell damage and alterations in the morphology

What does the source list for COc1ccc(C2C3=C(CC(C)(C)CC3=O)N(CCOC(=O)CN3C(=O)c4ccccc4C3=O)C3=C2C(=O)CC(C)(C)C3)cc1OC [Compound 8h, 2-(9-(3,4-dimethoxyphenyl)-3,3,6,6-tetramethyl-1,8-dioxo-2,3,4,5,6,7,8,9-octahydroacridin-10(1H)-yl) ethyl 2-(1,3-dioxoisoindolin-2-yl) acetate]?
selectivity index (SI) (skin cancer cells (A431)): 4.5; relative change in mRNA expression level of TOP2B (TOP2B): lowest relative change; selectivity index (SI) (lung cancer cells (H460)): 3.5; relative change in mRNA expression level of EGFR (EGFR): lowest relative change

COc1ccc(C2C3=C(CC(C)(C)CC3=O)N(CCOC(=O)CN3C(=O)c4ccccc4C3=O)C3=C2C(=O)CC(C)(C)C3)cc1 [Compound 8i, 2-(9-(4-methoxyphenyl)-3,3,6,6-tetramethyl-1,8-dioxo-2,3,4,5,6,7,8,9-octahydroacridin-10(1H)-yl) ethyl 2-(1,3-dioxoisoindolin-2-yl) acetate] was tested. Which morphological modifications (A431 cells) did it give?
Its morphological modifications is “significant cell damage and alteration in the morphology”.

And the IC50 (lung cancer cells (A549); Homo sapiens, A549 cells, MTT, 48 h, mean ± SEM)?
The IC50 was 37.4 ± 4.5 µg/mL.

And the “selectivity index (SI)” value (lung cancer cells (A549); mean IC50 against normal cells (HSF) divided by IC50 against A549)?
Its value is 4.0.
